Assay results published in PubChem BioAssay (NCI).
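Tested at 5 concentrations; 48 h exposure; 96-well plates; endpoints linearly interpolated, else capped at highest concentration. GI50: concentration for 50% inhibition of growth. At the TGI there is no net growth.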

Experiments:
Assay in all cases: NCI tumour cell line growth inhibition, 48 h
TK-10 renal = test system: TK-10 renal
NCI-H460 lung = test system: NCI-H460 lung
NCI-H522 lung = test system: NCI-H522 lung
K-562 leukemia = test system: K-562 leukemia
M14 melanoma = test system: M14 melanoma
SR leukemia = test system: SR leukemia
SF-268 CNS = test system: SF-268 CNS
HCT-116 colon = test system: HCT-116 colon
A498 renal = test system: A498 renal
RPMI-8226 leukemia = test system: RPMI-8226 leukemia

Compound | TGI (TK-10 renal) | TGI (NCI-H460 lung) | TGI (NCI-H522 lung) | TGI (K-562 leukemia) | TGI (M14 melanoma) | TGI (SR leukemia) | TGI (SF-268 CNS) | TGI (HCT-116 colon) | TGI (A498 renal) | GI50 (TK-10 renal) | GI50 (NCI-H460 lung) | GI50 (NCI-H522 lung) | GI50 (K-562 leukemia) | GI50 (M14 melanoma) | GI50 (SF-268 CNS) | GI50 (RPMI-8226 leukemia) | TGI (RPMI-8226 leukemia) | GI50 (HCT-116 colon) | GI50 (A498 renal) | GI50 (SR leukemia)
CC(=O)O/N=C/c1ncccc1CO | > 100 µM | > 100 µM | > 100 µM | > 100 µM | > 100 µM | > 100 µM | > 100 µM | > 100 µM | > 100 µM |  |  |  |  |  |  |  |  |  |  | 
N#CC(C#N)=C(N)/C(C#N)=C\c1ccnc2ccccc12 | > 100 µM | > 100 µM | 89.1 µM | 26.1 µM | > 100 µM | 58 µM | 66.3 µM | 12.4 µM |  |  |  |  |  |  |  |  |  |  |  | 
COc1ccc(/C=C/c2cc(OC)c(OC)c(OC)c2)cc1NC(=O)/C=C/c1ccc(F)cc1 | > 100 µM | > 100 µM | 5.73 µM | > 100 µM | > 100 µM |  | > 100 µM | > 100 µM |  | 4.73 µM | 3.09 µM | 1.87 µM | 1.44 µM | 2.81 µM | 7.7 µM | 2.1 µM | > 100 µM | 3.98 µM | 0.0352 µM | 
O=C1C(Br)=C[C@H]2C3C=CC(Br)(C3=O)[C@@H]12 (some centres not stated) |  |  | 18.2 µM | > 100 µM | 21.6 µM |  | 43.6 µM | 22.8 µM | 37.9 µM |  |  |  |  |  |  |  | > 100 µM |  |  | 
NC(CCCCNC(=O)OCc1ccccc1)C(=O)NC(CCCCNC(=O)OCc1ccccc1)C(=O)ON1C(=O)CCC1=O (configuration not stated) | > 100 µM | > 100 µM |  | > 100 µM | > 100 µM | > 100 µM |  | > 100 µM | > 100 µM |  |  |  |  |  |  |  | > 100 µM |  |  | 
CN(C)c1ccc(/C=C2\Oc3cc(O)ccc3C2=O)cc1 | > 100 µM | > 100 µM | > 100 µM | > 100 µM | > 100 µM | > 100 µM | > 100 µM | > 100 µM |  |  |  |  |  |  |  |  | > 100 µM |  |  | 
O=C(Nc1ccc(Cl)cc1)Nc1ccc(Cl)c(Cl)c1 | > 100 µM | 12.6 µM | > 100 µM | > 100 µM | > 100 µM |  | > 100 µM | > 100 µM | 7.94 µM | 7.64 µM | 2.77 µM | 4.15 µM | 2.63 µM | 4.71 µM | 4.36 µM | 1.61 µM | 4.73 µM | 3.5 µM | 3.05 µM | 
COC1=CC23C=CC1[C@@H](c1ccccc1)C2=C(C)C(=O)N3C(=O)NC1CCCCC1 (some centres not stated) | 84.3 µM | 42.2 µM | 41.3 µM | > 100 µM | 38.8 µM | 56.8 µM | 33.6 µM | 28.3 µM | 64.1 µM |  |  |  |  |  |  |  |  |  |  | 
O=C(Nc1ccccc1)c1ccc(Cl)c([N+](=O)[O-])c1 | > 100 µM | 98.9 µM | 32 µM | 14.3 µM | 29.9 µM |  |  |  | 63.9 µM |  |  |  |  |  |  |  | 37.6 µM |  |  | 
CC(C)=CC(C(O)c1ccccc1)S(=O)(=O)c1nccn1C (configuration not stated) | > 100 µM | > 100 µM | > 100 µM | > 100 µM | > 100 µM | > 100 µM | > 100 µM | > 100 µM |  |  |  |  |  |  |  |  | > 100 µM |  |  | 
CC(=O)NC(CCCCNC(=O)OCc1ccccc1)C(=O)NCc1ccccc1 (configuration not stated) | > 100 µM | > 100 µM | > 100 µM | > 100 µM | > 100 µM |  | > 100 µM | > 100 µM | > 100 µM |  |  |  |  |  |  |  | > 100 µM |  |  | 
COc1cc(-c2nc3ccc(C)cc3[nH]2)ccc1OCC(=O)N=Nc1c(O)[nH]c2ccccc12 | 11.1 µM | 3.73 µM |  |  | 3.56 µM |  |  | 1.66 µM | 7.46 µM | 3.21 µM | 1.85 µM |  |  | 1.84 µM |  |  |  | 0.442 µM | 2.36 µM | 
CCN(CC)CCn1c2c3ccccc3ccc2c2oc(=O)c3ccccc3c21 | > 100 µM | > 100 µM | > 100 µM | > 100 µM | > 100 µM | > 100 µM | > 100 µM | > 100 µM |  |  |  |  |  |  |  |  | > 100 µM |  |  | 
CCC(=O)c1cn(C)c(=O)c2ccccc12 | > 100 µM | > 100 µM | > 100 µM | > 100 µM | > 100 µM | > 100 µM | > 100 µM |  |  |  |  |  |  |  |  |  | > 100 µM |  |  | 
COc1ccc2c(c1)C(=O)CC(N)C2 (configuration not stated) | > 100 µM | > 100 µM | > 100 µM | > 100 µM | > 100 µM | > 100 µM | > 100 µM | > 100 µM |  |  |  |  |  |  |  |  | > 100 µM |  |  | 
c1cnc2c(c1)-n1cccc1C1(CCSCC1)NN2 | > 100 µM | > 100 µM | > 100 µM | > 100 µM | > 100 µM | > 100 µM | > 100 µM | > 100 µM |  |  |  |  |  |  |  |  | > 100 µM |  |  | 
COc1ccc2c(c1)sc1nc(-c3ccccc3)c(-c3ccsc3)n12 | > 100 µM | > 100 µM | 36.8 µM | > 100 µM | > 100 µM | > 100 µM | > 100 µM | > 100 µM | > 100 µM | 37.7 µM | 4.45 µM | 2.99 µM | 0.878 µM | 2.64 µM | 8.54 µM |  |  | 4.18 µM | 6.26 µM | 2.02 µM
Cc1nc2ccc(C(F)(F)F)cc2nc1Nc1ccc(Cl)c(Cl)c1 | 31.7 µM | 10.5 µM |  |  |  | 51.9 µM | 37.5 µM | 22.2 µM |  |  |  |  |  |  |  |  | 88.1 µM |  |  | 
COc1cc2nc(-c3ccc(C(F)(F)F)cc3)cc(OCCCN3CCOCC3)c2cc1OC | 30.6 µM | 13.6 µM | 15.3 µM | 15.9 µM | 1.55 µM | 14.3 µM | 27.9 µM | 13.5 µM | 4.52 µM | 13.9 µM | 0.639 µM | 2.52 µM | 1.18 µM | 0.355 µM | 5.7 µM |  |  | 0.583 µM | 1.51 µM | 0.242 µM
